The values that follow come from ChEMBL document CHEMBL3124777, “Synthesis and biological evaluation of thiazoline derivatives as new antimicrobial and anticancer agents” (Eur J Med Chem, 2014).

In brackets after ≈: the same amount, converted by molar mass.

The subject of the first test is NIH3T3. Put plainly: Cytotoxicity against mouse NIH/3T3 cells after 24 hrs by MTT assay. The class given is cell-based. The note with it: NIH3T3, 24 h. In general terms: Formazan colour is commonly taken as a measure of viable cells.
As for `Cn1nnnc1SCC(=O)N/N=c1/scc(-c2ccc(Cl)cc2)n1-c1ccccc1`, the IC50 (commonly the point on the concentration scale where inhibition reaches its midpoint) was found to be 40 mg/L (≈ 87.3 µM).
`O=C(CSc1ncccn1)N/N=c1/scc(-c2ccc([N+](=O)[O-])cc2)n1-c1ccccc1` had an IC50 of 193 mg/L (≈ 416 µM).
Compound `Cn1nnnc1SCC(=O)N/N=c1/scc(-c2ccc(Br)cc2)n1-c1ccccc1` had an IC50 of 19.3 mg/L (≈ 38.4 µM).

Another test concerns Candida albicans. In words: Antimicrobial activity against Candida albicans ATCC 22019 after 18 to 24 hrs by microbroth dilution method. The class given is functional.
Settings: not given
(Broth dilution looks for growth in wells or tubes with falling amounts of substance.)
In the case of `Cn1nnnc1SCC(=O)N/N=c1/scc(-c2ccc(Cl)cc2)n1-c1ccccc1`, the lowest concentration to inhibit growth (MIC) was 250 mg/L (≈ 546 µM).
Same read-out and setting: with `O=C(CSc1ncccn1)N/N=c1/scc(-c2ccc([N+](=O)[O-])cc2)n1-c1ccccc1` the figure was 250 mg/L (≈ 538 µM); with `Cn1nnnc1SCC(=O)N/N=c1/scc(-c2ccc(Br)cc2)n1-c1ccccc1`, 250 mg/L (≈ 498 µM).

The next test deals with Fusarium culmorum. In words: Antimicrobial activity against wild type Fusarium culmorum after 48 to 72 hrs by microbroth dilution method. The class given is functional.
Settings: not given
Consider `Cn1nnnc1SCC(=O)N/N=c1/scc(-c2ccc(Cl)cc2)n1-c1ccccc1`, for which 250 mg/L (≈ 546 µM) was the least that counted as inhibitory (MIC).
`O=C(CSc1ncccn1)N/N=c1/scc(-c2ccc([N+](=O)[O-])cc2)n1-c1ccccc1`: inhibition of growth (MIC) required 250 mg/L (≈ 538 µM).
As for `Cn1nnnc1SCC(=O)N/N=c1/scc(-c2ccc(Br)cc2)n1-c1ccccc1`, the MIC – broadly, the smallest concentration in the dilution series that meets the test's criterion for growth inhibition – was found to be 125 mg/L (≈ 249 µM).

For another test, the system named is Fusarium verticillioides. Put plainly: Antimicrobial activity against Fusarium moniliforme NRRL 1866 after 48 to 72 hrs by microbroth dilution method. The class given is functional.
Settings: not given
Regarding `Cn1nnnc1SCC(=O)N/N=c1/scc(-c2ccc(Cl)cc2)n1-c1ccccc1`, the MIC came out at 250 mg/L (≈ 546 µM).
As to `O=C(CSc1ncccn1)N/N=c1/scc(-c2ccc([N+](=O)[O-])cc2)n1-c1ccccc1`, the MIC turned out to be 250 mg/L (≈ 538 µM).
With `Cn1nnnc1SCC(=O)N/N=c1/scc(-c2ccc(Br)cc2)n1-c1ccccc1`, the lowest concentration to inhibit growth (MIC) was 250 mg/L (≈ 498 µM).

Another test concerns Fusarium solani. In words: Antimicrobial activity against Fusarium solani NRRL 13414 after 48 to 72 hrs by microbroth dilution method. The class given is functional.
Settings: not given
With `Cn1nnnc1SCC(=O)N/N=c1/scc(-c2ccc(Cl)cc2)n1-c1ccccc1`, it took 250 mg/L (≈ 546 µM) to inhibit growth (MIC).
`O=C(CSc1ncccn1)N/N=c1/scc(-c2ccc([N+](=O)[O-])cc2)n1-c1ccccc1` gave an MIC of 250 mg/L (≈ 538 µM).
`Cn1nnnc1SCC(=O)N/N=c1/scc(-c2ccc(Br)cc2)n1-c1ccccc1` had an MIC of 250 mg/L (≈ 498 µM).

The test system of another test is Aspergillus ochraceus. Put plainly: Antimicrobial activity against Aspergillus ochraceus NRRL 3174 after 48 to 72 hrs by microbroth dilution method. The class given is functional.
Settings: not given
`Cn1nnnc1SCC(=O)N/N=c1/scc(-c2ccc(Cl)cc2)n1-c1ccccc1` yielded an MIC of 250 mg/L (≈ 546 µM).
The compound `O=C(CSc1ncccn1)N/N=c1/scc(-c2ccc([N+](=O)[O-])cc2)n1-c1ccccc1` showed an MIC of 250 mg/L (≈ 538 µM).
Consider `Cn1nnnc1SCC(=O)N/N=c1/scc(-c2ccc(Br)cc2)n1-c1ccccc1`, for which the MIC was found to be 250 mg/L (≈ 498 µM).

The subject of the next test is Trichoderma harzianum. Put plainly: Antimicrobial activity against Trichoderma harzianum NRRL 20565 after 48 to 72 hrs by microbroth dilution method. In kind it is functional.
Settings: not given
With `Cn1nnnc1SCC(=O)N/N=c1/scc(-c2ccc(Cl)cc2)n1-c1ccccc1`, the MIC was found to be 250 mg/L (≈ 546 µM).
`O=C(CSc1ncccn1)N/N=c1/scc(-c2ccc([N+](=O)[O-])cc2)n1-c1ccccc1` gave an MIC of 250 mg/L (≈ 538 µM).
`Cn1nnnc1SCC(=O)N/N=c1/scc(-c2ccc(Br)cc2)n1-c1ccccc1` had an MIC of 125 mg/L (≈ 249 µM).

Another test concerns Penicillium chrysogenum. Put plainly: Antimicrobial activity against Penicillium chrysogenum NRRL 1951 after 48 to 72 hrs by microbroth dilution method. In kind it is functional.
Settings: not given
In the case of `Cn1nnnc1SCC(=O)N/N=c1/scc(-c2ccc(Cl)cc2)n1-c1ccccc1`, it took 250 mg/L (≈ 546 µM) to inhibit growth (MIC).
Still for that read-out and setting: with `O=C(CSc1ncccn1)N/N=c1/scc(-c2ccc([N+](=O)[O-])cc2)n1-c1ccccc1` the figure was 250 mg/L (≈ 538 µM); with `Cn1nnnc1SCC(=O)N/N=c1/scc(-c2ccc(Br)cc2)n1-c1ccccc1`, 250 mg/L (≈ 498 µM).

Another test concerns Aspergillus parasiticus. Put plainly: Antimicrobial activity against Aspergillus parasiticus NRRL 465 after 48 to 72 hrs by microbroth dilution method. In kind it is functional.
Settings: not given
Take `Cn1nnnc1SCC(=O)N/N=c1/scc(-c2ccc(Cl)cc2)n1-c1ccccc1`: the lowest concentration to inhibit growth (MIC) was 250 mg/L (≈ 546 µM).
Compound `O=C(CSc1ncccn1)N/N=c1/scc(-c2ccc([N+](=O)[O-])cc2)n1-c1ccccc1` had an MIC of 250 mg/L (≈ 538 µM).
For the compound `Cn1nnnc1SCC(=O)N/N=c1/scc(-c2ccc(Br)cc2)n1-c1ccccc1`, the MIC came out at 250 mg/L (≈ 498 µM).

A further test concerns Bacillus subtilis. Put plainly: Antimicrobial activity against Bacillus subtilis NRS-744 after 18 to 24 hrs by microbroth dilution method. In kind it is functional.
Settings: not given
`Cn1nnnc1SCC(=O)N/N=c1/scc(-c2ccc(Cl)cc2)n1-c1ccccc1` returned an MIC of 250 mg/L (≈ 546 µM).
Consider `O=C(CSc1ncccn1)N/N=c1/scc(-c2ccc([N+](=O)[O-])cc2)n1-c1ccccc1`, for which the lowest concentration to inhibit growth (MIC) was 250 mg/L (≈ 538 µM).
Regarding `Cn1nnnc1SCC(=O)N/N=c1/scc(-c2ccc(Br)cc2)n1-c1ccccc1`, the MIC is 250 mg/L (≈ 498 µM).

Another test relates to Micrococcus luteus. In words: Antimicrobial activity against Micrococcus luteus NRLL B-4375 after 18 to 24 hrs by microbroth dilution method.
Settings: not given
In kind it is functional.
In turn, `Cn1nnnc1SCC(=O)N/N=c1/scc(-c2ccc(Cl)cc2)n1-c1ccccc1` returned an MIC of 250 mg/L (≈ 546 µM).
Take `O=C(CSc1ncccn1)N/N=c1/scc(-c2ccc([N+](=O)[O-])cc2)n1-c1ccccc1`: it took 250 mg/L (≈ 538 µM) to inhibit growth (MIC).
Still for that read-out and setting: to `Cn1nnnc1SCC(=O)N/N=c1/scc(-c2ccc(Br)cc2)n1-c1ccccc1` belongs 125 mg/L (≈ 249 µM).

The test system of a further test is Pseudomonas aeruginosa. Put plainly: Antimicrobial activity against Pseudomonas aeruginosa […] after 18 to 24 hrs by microbroth dilution method. The class given is functional.
Settings: not given
`Cn1nnnc1SCC(=O)N/N=c1/scc(-c2ccc(Cl)cc2)n1-c1ccccc1` displayed an MIC of 250 mg/L (≈ 546 µM).
Still for that read-out and setting: with `O=C(CSc1ncccn1)N/N=c1/scc(-c2ccc([N+](=O)[O-])cc2)n1-c1ccccc1` the figure was 250 mg/L (≈ 538 µM); with `Cn1nnnc1SCC(=O)N/N=c1/scc(-c2ccc(Br)cc2)n1-c1ccccc1`, 250 mg/L (≈ 498 µM).

The next test relates to Escherichia coli. In words: Antimicrobial activity against Escherichia coli ATCC 25922 after 18 to 24 hrs by microbroth dilution method. The class given is functional.
Settings: not given
On to `Cn1nnnc1SCC(=O)N/N=c1/scc(-c2ccc(Cl)cc2)n1-c1ccccc1`, for which it took 250 mg/L (≈ 546 µM) to inhibit growth (MIC).
The compound `O=C(CSc1ncccn1)N/N=c1/scc(-c2ccc([N+](=O)[O-])cc2)n1-c1ccccc1` yielded an MIC of 250 mg/L (≈ 538 µM).
The same measure, in the same setting: to `Cn1nnnc1SCC(=O)N/N=c1/scc(-c2ccc(Br)cc2)n1-c1ccccc1` belongs 250 mg/L (≈ 498 µM).

The next test has as its system Listeria monocytogenes. In words: Antimicrobial activity against Listeria monocytogenes ATCC 7644 after 18 to 24 hrs by microbroth dilution method. The class given is functional.
Settings: not given
Consider `Cn1nnnc1SCC(=O)N/N=c1/scc(-c2ccc(Cl)cc2)n1-c1ccccc1`, for which the MIC is 250 mg/L (≈ 546 µM).
`O=C(CSc1ncccn1)N/N=c1/scc(-c2ccc([N+](=O)[O-])cc2)n1-c1ccccc1`: the lowest concentration to inhibit growth (MIC) was 250 mg/L (≈ 538 µM).
As to `Cn1nnnc1SCC(=O)N/N=c1/scc(-c2ccc(Br)cc2)n1-c1ccccc1`, the lowest concentration to inhibit growth (MIC) was 250 mg/L (≈ 498 µM).

A further test deals with Staphylococcus aureus. In words: Antimicrobial activity against Staphylococcus aureus NRRL B-767 after 18 to 24 hrs by microbroth dilution method.
Settings: not given
In kind it is functional.
The compound `Cn1nnnc1SCC(=O)N/N=c1/scc(-c2ccc(Cl)cc2)n1-c1ccccc1` had a minimum inhibitory concentration (MIC) of 500 mg/L (≈ 1090 µM).
As for `O=C(CSc1ncccn1)N/N=c1/scc(-c2ccc([N+](=O)[O-])cc2)n1-c1ccccc1`, the MIC is 250 mg/L (≈ 538 µM).
The same measure, in the same setting: with `Cn1nnnc1SCC(=O)N/N=c1/scc(-c2ccc(Br)cc2)n1-c1ccccc1` the figure was 250 mg/L (≈ 498 µM).
